The source of these data is ChEMBL document CHEMBL5260811, “Drug development against tuberculosis: Impact of alkaloids” (Eur J Med Chem, 2017).

The structures appear in SMILES notation.

Experiment [1] deals with Mycobacterium tuberculosis variant bovis. Kind of experiment: Antimycobacterial activity against Mycobacterium bovis. The class given is functional.
The test system is the same in experiment [2]. Kind of experiment: Antimycobacterial activity against Mycobacterium bovis BCG. In kind it is functional.

Turning to `C1=C\CCCCN2C[C@H]3CCCC/C=C\CCCCN4CC[C@@H]([C@H](CCCCCC/1)C4)[C@H](C3)C2`, the IC in experiment [1] was 2.5 µg/mL.

In experiment [1], `C1=C\CCCC[C@@H]2CN3CCCC/C=C\CCCC[C@H]4C[C@H](CN(CCCCCC/1)C4)[C@H]2CC3` yielded an IC of 1 µg/mL.

For `C(=N\Nc1nncs1)/c1c[nH]c2ccccc12`, the IC in experiment [2] was 7.81 µg/mL. In turn, `OC1CCCC/C=C\CCCC[C@@H]2CN3CCCC/C=C\CCCC[C@H]4C[C@H](CN(C1)C4)[C@H]2CC3` (some centres undefined) came in with an IC in experiment [1] of 12.5 µg/mL.
